This passage reports TGI results from PubChem BioAssay (NCI).

Values joined by “and” are separate entries in the source; they are usually repeats but may differ in a detail not shown here. Identical values can stand only once.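 Each compound was tested at five concentrations against cells in 96-well plates for 48 hours. The concentration for full growth arrest is given as TGI.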 Bounds are passed on as bounds.

Assay in all cases: NCI anticancer screen, dose series, 48 h
Assay [1] relates to A549 NSCLC.
Assay [2] concerns IGROV1 ovarian.
For assay [3], the system named is MCF7 breast.
The subject of assay [4] is OVCAR-5 ovarian.
Assay [5] deals with SF-295 CNS.
The subject of assay [6] is SN12C renal.
Assay [7] relates to SNB-19 CNS.
In assay [8] the test system is SNB-75 CNS.
Assay [9] relates to T-47D breast.
Assay [10] relates to TK-10 renal.

Consider `Cc1cnc2[nH]c(-c3sccc3C)cc(=O)c2c1`, for which the TGI in assay [1], in assay [2], in [3], in assay [4], in assay [5] and in assay [6] was > 100 µM in each case. Also, the TGI in assay [7] was > 40.8 µM; in assay [8], > 100 µM; in assay [9] it was > 100 µM; in assay [10], > 100 µM.

With `N#Cc1nc(-c2ccccn2)c(-c2ccccn2)nc1C#N`, the TGI in assay [1] was 19.8 µM; in assay [2], 22.2 µM; in assay [3] it was 28 µM; in assay [4], 10 µM; in assay [5], 7.92 µM; in assay [6] it was > 100 µM. Further, the TGI in assay [7] was found to be 22 µM; in [8], 22.9 µM; in [9], 9.5 µM; in [10], 17.3 µM.

With `CCOC(=O)C1=C(C)N(c2ccc(Cl)cc2)C2(O)C=CC(=O)C3C(=O)N(c4ccccc4)C(=O)C132` (stereo not given), the TGI in assay [1] amounted to 10.5 µM; in assay [2], 3.11 µM; in [3], 4.06 µM; in assay [4], 4.15 µM; in [5], 5.25 µM; in assay [6], 5.28 µM. Besides, the TGI is 8.1 µM in [7], 3.25 µM in assay [8], 6.55 µM in assay [9] and 3.49 µM in assay [10].

In the case of `Cc1cc(S(=O)(=O)Nc2n[nH]c(N)n2)c(S)cc1Cl`, the TGI in assay [1], in assay [2], in assay [3], in [4], in [5] and in [6] was > 10 µM each time. Besides, the TGI in [7], in assay [8], in assay [9] and in assay [10] was > 10 µM in each case.

In the case of `Cc1nc2ccccc2nc1N1CCCC1`, the TGI in assay [1], in assay [2], in assay [3], in [4], in [5] and in assay [6] was > 100 µM throughout. The TGI in [7], in [8], in assay [9] and in assay [10] was > 100 µM in each case.

For the compound `CCOC(=O)c1sc2[n+](c1C)C(=O)/C(=C/c1ccccc1Cl)S2`, the TGI in assay [1] was > 56.8 µM; in assay [2], 23.3 µM; in [3] it was 15 µM; in assay [4] it was > 62 µM; in assay [5], 4.75 µM; in assay [6], > 100 µM. The TGI is > 42.7 µM in assay [7], > 54.3 µM in assay [8], 55.1 µM in assay [9] and 57 µM in assay [10].

Take `CC(=O)N1C(=O)/C(=C\C(=O)c2ccc(Cl)cc2)c2ccccc21`: the TGI in [1] is 22.9 µM; in assay [2], 33.2 µM; in [3], > 76.2 µM; in assay [4], 48.4 µM; in assay [5], 52.7 µM; in assay [6] it was 32.1 µM. The TGI in assay [7] is > 57.2 µM; in assay [8] it was 35 µM; in assay [9] it was 47.6 µM; in assay [10], 30.5 µM.

With `c1ccc2c(c1)[C@@H]1O[C@@H]1[C@@]13O[C@@]21[C@H]1O[C@H]1c1ccccc13`, the TGI in [1] is 47 µM; in assay [2], 29.3 µM; in assay [3], > 100 µM; in [4], 34.8 µM; in [5], 30.1 µM; in assay [6], 38.2 µM. Further, the TGI in [7] turned out to be 40.1 µM; in assay [8], 27.2 µM; in assay [9], 57.8 µM; in assay [10] it was 62.2 µM.

Regarding `CCCCCC(=O)OCC1(CO)C/C(=C/CC(C(C)C)C(C)C)C(=O)O1` (stereo not given), the TGI was > 75 µM in [1]; 37.2 µM in assay [2]; > 75 µM in assay [3]; > 75 µM in assay [4]; > 75 µM in assay [5]; > 75 µM in [6]. The TGI in [7], in [8], in [9] and in assay [10] was > 75 µM each time.

Consider `CC(=O)OC1COC(n2c(N)c(C#N)c(-c3ccccc3)c(C#N)c2=S)C(OC(C)=O)C1OC(C)=O` (stereo not given), for which the TGI in [1], in assay [2], in assay [3], in [4], in assay [5] and in assay [6] was > 100 µM throughout. Moreover, the TGI in assay [7] is > 100 µM; in [8], 86.8 µM and > 100 µM; in [9] it was > 100 µM; in [10], 94 µM.

Consider `CCOC(=O)/C=C/C(Br)=C(Br)/C=C/C(=O)OCC`, for which the TGI in [1] turned out to be 56 µM; in [2], 30.1 µM; in assay [3], 26.2 µM; in [4], 34.9 µM; in assay [5], 28.8 µM; in [6] it was 25.9 µM. Also, the TGI is 33.6 µM in assay [7], 26 µM in [8], > 64.5 µM in [9] and 28.1 µM in [10].

In the case of `CC1=CCC(=O)[C@]2(C)C(CC(=O)O)[C@]3(C)C4=C(C)C(c5ccoc5)C[C@@H]4O[C@@H]3[C@H](O)[C@@H]12` (stereo not given in full), the TGI in assay [1], in assay [2], in assay [3], in assay [4], in [5] and in assay [6] was > 100 µM throughout. For the same compound, the TGI in assay [7], in [8], in [9] and in [10] was > 100 µM each time.

Turning to `CC1C/C(=C\c2ccc(O)c(O)c2)C(=O)/C(=C/c2ccc(O)c(O)c2)C1` (stereo not given), the TGI in assay [1] worked out at 32.8 µM; in assay [2], 19.8 µM; in assay [3] it was 14.8 µM; in assay [4], 32.8 µM; in assay [5], 27.7 µM; in [6] it was 20.4 µM. For the same compound, the TGI is 22.5 µM in [7], 16.7 µM in assay [8], 27.8 µM in assay [9] and > 100 µM in [10].

In the case of `CC1CC2OC(=N)C1(C#N)C2(C#N)C#N` (stereo not given), the TGI was > 100 µM in assay [1]; 51.4 µM in assay [2]; > 100 µM in assay [3]; 48.5 µM in assay [4]; > 100 µM in [5]; 33.6 µM in assay [6]. Besides, the TGI in assay [7] was > 100 µM; in [8], 43.1 µM; in assay [9], 97.4 µM; in assay [10], 71.6 µM.

Regarding `COc1ccc2c(-c3csc(-c4c[nH]c5ccccc45)n3)c[nH]c2c1`, the TGI in assay [1] was 53.7 µM; in [2], > 58.2 µM; in assay [3], > 100 µM; in assay [4], > 50.7 µM; in assay [5] it was 35.2 µM; in [6], 35.9 µM. In addition, the TGI in [7] was > 100 µM; in [8], 91.7 µM; in assay [9], > 100 µM; in assay [10], 23.5 µM.

Turning to `COc1ccc(Cn2nc(OCc3ccccc3)c3cc([N+](=O)[O-])ccc32)cc1`, the TGI in assay [1], in assay [2], in [3], in assay [4], in assay [5] and in assay [6] was > 100 µM in each case. In addition, the TGI in assay [7], in assay [8], in assay [9] and in [10] was > 100 µM in each case.

Consider `CC(=O)c1nc(C#N)c(N)o1`, for which the TGI in assay [1], in assay [2], in assay [3], in assay [4], in assay [5] and in assay [6] was > 100 µM each time. Moreover, the TGI in assay [7], in [8], in assay [9] and in [10] was > 100 µM in each case.

For `COc1cc(C)c(S(=O)(=O)N(CCCN)OCCCN)c(C)c1C`, the TGI was > 100 µM in [1]; > 100 µM in [2]; 53.1 µM in [3]; > 100 µM in assay [4]; > 100 µM in assay [5]; > 100 µM in [6]. In addition, the TGI in assay [7], in [8], in assay [9] and in assay [10] was > 100 µM each time.

For the compound `CC(=O)OCC12C(OC(C)=O)C[C@@H](C)C3(CC(c4ccoc4)OC3=O)C1CCC(OC(C)=O)C21CO1` (stereo not given in full), the TGI in assay [1], in assay [2], in [3], in assay [4], in assay [5] and in [6] was > 100 µM in each case. Also, the TGI in assay [7], in [8], in [9] and in assay [10] was > 100 µM in each case.

For the compound `O=C1CSC(c2cc3cc(Br)ccc3nc2Cl)N1c1ccc(F)c(Cl)c1` (stereo not given), the TGI in assay [1], in assay [2], in [3], in [4], in [5] and in [6] was > 50 µM each time. In addition, the TGI in assay [7], in assay [8], in assay [9] and in assay [10] was > 50 µM each time.

Take `Cc1nc(C)c(C(=O)NNC(=O)c2ccccc2)cc1C(=O)NNC(=O)c1ccccc1`: the TGI in assay [1] was > 100 µM; in [2], > 10 µM; in assay [3] it was > 100 µM; in assay [4], > 100 µM; in assay [5], > 100 µM; in assay [6], > 100 µM. In addition, the TGI in assay [7] is > 100 µM; in [8], > 10 µM; in assay [9], > 100 µM; in [10], > 100 µM.

Turning to `CCOC(=O)CCC1(C(=O)O[C@@H]2C[C@H](C)CC[C@H]2C(C)C)CCCCC1=O` (stereo not given in full), the TGI in assay [1], in [2], in assay [3], in [4], in assay [5] and in assay [6] was > 100 µM in each case. The TGI in assay [7], in assay [8], in [9] and in assay [10] was > 100 µM throughout.

As for `CCN(CC)CCC1(C(=O)OC)SCCc2ccc(C)cc21` (stereo not given), the TGI in [1], in assay [2], in [3], in [4], in assay [5] and in [6] was > 100 µM in each case. In addition, the TGI in assay [7], in assay [8], in assay [9] and in assay [10] was > 100 µM each time.

Take `CC(=O)c1c2c(cc3c1CCC3)CCC2`: the TGI in assay [1], in assay [2], in assay [3], in assay [4], in [5] and in [6] was > 100 µM each time. Moreover, the TGI is > 100 µM in assay [7], > 100 µM in assay [8], 46.8 µM in assay [9] and > 100 µM in [10].

Consider `Fc1sc2c(c1F)C1CCC2C1` (stereo not given), for which the TGI in assay [1], in assay [2], in assay [3], in assay [4], in assay [5] and in assay [6] was > 100 µM each time. Moreover, the TGI in assay [7], in assay [8], in assay [9] and in [10] was > 100 µM throughout.

For `NC(=O)c1ccc(S(=O)(=NS(=O)(=O)c2ccccc2)c2ccc(C(N)=O)cc2)cc1`, the TGI in assay [1], in [2], in assay [3], in assay [4], in [5] and in [6] was > 100 µM in each case. The TGI in assay [7], in assay [8], in [9] and in assay [10] was > 100 µM in each case.

Turning to `O=C1CCc2c(sc3ncnc(Nc4cccc(Br)c4)c23)C1`, the TGI in assay [1] turned out to be 24.5 µM; in [2] it was 12.6 µM; in [3] it was 22.3 µM; in [4], 23.4 µM; in assay [5] it was 15.3 µM; in [6], 12.7 µM. For the same compound, the TGI in [7] worked out at 19.2 µM; in [8] it was 12.5 µM; in assay [9], 6.17 µM; in assay [10], 14.5 µM.
